The text below walks through data of patent US10246442B2, “4-Aminoquinazolin compounds as prolyl hydroxylase inhibitors” (JANSSEN PHARMACEUTICA NV, priority 2011, dated 2019).

For experiment [1], the target named is PHD2181-417 (Homo sapiens (Human), UniProt Q9GZT9). Description: PHD enzymatic assay ([14C]-succinic acid production). The conditions noted are these: purified PHD2181-417, HIF-1α peptide substrate, 30 min pre-incubation; average of results. Type of experiment: biochemical. The essentials: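 Recombinant human PHD2 (aa 181-417, E. coli-expressed, tags cleaved) with peptide substrate (10 μM) and [5-14C]-2-oxoglutarate in Tris pH 7.5 with catalase, DTT and ascorbate, 10 min reaction after 30 min compound pre-incubation; compounds at 100 μM final, 1% DMSO. [14C]-succinate separated by DNP precipitation and beta-counted; IC50 from three-parameter logistic fit.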
Sequence of PHD2181-417 (Q9GZT9 181-417): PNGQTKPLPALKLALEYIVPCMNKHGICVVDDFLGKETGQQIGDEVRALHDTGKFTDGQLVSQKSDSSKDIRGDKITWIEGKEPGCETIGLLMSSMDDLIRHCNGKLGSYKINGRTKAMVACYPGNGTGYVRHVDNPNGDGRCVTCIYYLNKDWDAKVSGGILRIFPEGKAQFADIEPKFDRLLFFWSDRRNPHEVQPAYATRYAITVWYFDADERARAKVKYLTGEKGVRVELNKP

In experiment [2] the test system is HIF1-α, Hela cells. Description: Cellular assay for HIF1-α in Hela cells. Type of experiment: cell-based. The following applies: Homo sapiens, 100 μM compound, 6 hours, percent of HIF stimulation relative to assay control compound 7-[(4-Chloro-phenyl)-(5-methyl-isoxazol-3-ylamino)-methyl]-quinolin-8-ol. On the procedure: Cellular Assay for HIF1-α
Hela cells (ATCC, Manassas, Va.) were plated in 96-well plates at 20,000 cells per well in 100 μl of DMEM containing 10% fetal bovine serum, 1% non-essential amino acids, 50 IU/mL of penicillin and 50 μg/mL of streptomycin (all cell culture reagents from Invitrogen, Carlsbad, Calif.). 24 hours after plating, changed media to 100 ul of DMEM without 10% fetal bovine serum, 1.1 μl of the stock solution for each compound was added and incubated for 6 hours. All compounds were tested with a final compound concentration of 100 μM. The supernatant was removed and the cells were lysed in 55 μl of MSD lysis buffer containing protease inhibitors. 50 μl of the cell lysate was then transferred to a blocked MSD human HIF-1α detection plate (Meso-Scale Discovery, Gaithersburg, Md., as per manufacturers protocol), and incubated at room temperature on an orbital shaker for 2 hour. After 3 washes in PBS, 25 μl of 20 nM anti-HIF1α a detection antibody was added and incubated for 1 hour at room temperature on an orbital shaker. After 3 washes in PBS, 150 μl of 1× read buffer was added and the plate was then read on a MSD SECTOR instrument. Data was analyzed by determining the percent of HIF stimulation in the presence of 100 μM compound relative to an assay control compound, 7-[(4-Chloro-phenyl)-(5-methyl-isoxazol-3-ylamino)-methyl]-quinolin-8-ol.

For the compound `O=C(O)c1cnn(-c2nc(NC3CCOCC3)c3cc(-c4ccccc4)ccc3n2)c1` [Example 56, 1-(6-Phenyl-4-((tetrahydro-2H-pyran-4-yl)amino)quinazolin-2-yl)-1H-pyrazole-4-carboxylic acid], the “Enzyme pIC50” value in experiment [1] worked out at 6.2. In experiment [2], this compound displayed an activation at 100 µM of 25%.
For `CN1CCCN(c2nc(-n3cc(C(=O)O)cn3)nc3ccc(-c4ccccc4)cc23)CC1` [Example 57, 1-(4-(4-Methyl-1,4-diazepan-1-yl)-6-phenylquinazolin-2-yl)-1H-pyrazole-4-carboxylic acid] the same measures were 6.4 and 30%.
For `O=C(O)c1cnn(-c2nc(N3CCOCC3)c3cc(-c4ccccc4)ccc3n2)c1` [Example 58, 1-(4-Morpholino-6-phenylquinazolin-2-yl)-1H-pyrazole-4-carboxylic acid] the same measures were 6.5 and 49%.
The matching figures for `N#CC1CCN(c2nc(-n3cc(C(=O)O)cn3)nc3ccc(-c4ccccc4)cc23)CC1` [Example 59, 1-(4-(4-Cyanopiperidin-1-yl)-6-phenylquinazolin-2-yl)-1H-pyrazole-4-carboxylic acid]: 6.4 and 45%.
With `O=C(O)c1cnn(-c2nc(NCC3CCCCC3)c3cc(Oc4ccc(Cl)cc4)ccc3n2)c1` [Example 64, 1-(6-(4-Chlorophenoxy)-4-((cyclohexylmethyl)amino)quinazolin-2-yl)-1H-pyrazole-4-carboxylic acid], in experiment [1], the “Enzyme pIC50” value is reported as 7.5. Moreover, the activation at 100 µM in experiment [2] worked out at 1.5%.
For `O=C(O)c1cnn(-c2nc(N3CCCCCC3)c3cc(Oc4ccc(Cl)cc4)ccc3n2)c1` [Example 66, 1-(4-(Azepan-1-yl)-6-(4-chlorophenoxy)quinazolin-2-yl)-1H-pyrazole-4-carboxylic acid] the same measures were 7.5 and 14%.
For `O=C(O)c1cnn(-c2nc(N3CCSCC3)c3cc(Oc4ccc(Cl)cc4)ccc3n2)c1` [Example 67, 1-(6-(4-Chlorophenoxy)-4-thiomorpholinoquinazolin-2-yl)-1H-pyrazole-4-carboxylic acid], the “Enzyme pIC50” value in experiment [1] is 7.3. The activation at 100 µM in experiment [2] was 31%.
As for `CC(C)(C)Nc1nc(-n2cc(C(=O)O)cn2)nc2ccc(Oc3ccccc3)cc12` [Example 72, 1-(4-(tert-Butylamino)-6-phenoxyquinazolin-2-yl)-1H-pyrazole-4-carboxylic acid], the “Enzyme pIC50” value in experiment [1] came to 6.7. In addition, in experiment [2], the activation at 100 µM turned out to be 32%.
Regarding `CCN(CC)c1nc(-n2cc(C(=O)O)cn2)nc2ccc(Oc3ccccc3)cc12` [Example 74, 1-(4-(Diethylamino)-6-phenoxyquinazolin-2-yl)-1H-pyrazole-4-carboxylic acid], the “Enzyme pIC50” value in experiment [1] was determined as 7.3. The activation at 100 µM in experiment [2] stood at 81%.
The matching figures for `O=C(O)c1cnn(-c2nc(NC3CCOCC3)c3cc(Oc4ccccc4)ccc3n2)c1` [Example 76, 1-(6-Phenoxy-4-((tetrahydro-2H-pyran-4-yl)amino)quinazolin-2-yl)-1H-pyrazole-4-carboxylic acid]: 6.5 and 19%.
For `CN(C)c1nc(-n2cc(C(=O)O)cn2)nc2cc(-c3ccccc3)ccc12` [Example 80, 1-(4-(Dimethylamino)-7-phenylquinazolin-2-yl)-1H-pyrazole-4-carboxylic acid] the same measures were 6.0 and 7.8%.
The matching figures for `O=C(O)c1cnn(-c2nc(N3CCCC3)c3ccc(-c4ccccc4)cc3n2)c1` [Example 81, 1-(7-Phenyl-4-(pyrrolidin-1-yl)quinazolin-2-yl)-1H-pyrazole-4-carboxylic acid]: 5.5 and 10%.
In the case of `O=C(O)c1cnn(-c2nc(N3CCCCC3)c3ccc(-c4ccccc4)cc3n2)c1` [Example 82, 1-(7-Phenyl-4-(piperidin-1-yl)quinazolin-2-yl)-1H-pyrazole-4-carboxylic acid], the “Enzyme pIC50” value in experiment [1] is recorded as 6.1. The same compound came in with an activation at 100 µM in experiment [2] of 4.6%.
Regarding `O=C(O)c1cnn(-c2nc(NCC3CCCCC3)c3ccc(Oc4ccccc4)cc3n2)c1` [Example 84, 1-(4-((Cyclohexylmethyl)amino)-7-phenoxyquinazolin-2-yl)-1H-pyrazole-4-carboxylic acid], in experiment [1], the “Enzyme pIC50” value was 6.8. This compound showed an activation at 100 µM in experiment [2] of 4.6%.
For `CC(C)C1CCN(c2nc(-n3cc(C(=O)O)cn3)nc3cc(Oc4ccccc4)ccc23)CC1` [Example 85, 1-(4-(4-isopropylpiperidin-1-yl)-7-phenoxyquinazolin-2-yl)-1H-pyrazole-4-carboxylic acid], the “Enzyme pIC50” value in experiment [1] was found to be 6.8. Moreover, the activation at 100 µM in experiment [2] turned out to be 1.7%.
For `O=C(O)c1cnn(-c2nc(NC3CC3)c3ccc(Oc4ccccc4)cc3n2)c1` [Example 86, 1-(4-(Cyclopropylamino)-7-phenoxyquinazolin-2-yl)-1H-pyrazole-4-carboxylic acid] the same measures were 6.3 and 13%.
In the case of `O=C(O)c1cnn(-c2nc(N3CCOCC3)c3ccc(Oc4ccccc4)cc3n2)c1` [Example 89, 1-(4-Morpholino-7-phenoxyquinazolin-2-yl)-1H-pyrazole-4-carboxylic acid], the “Enzyme pIC50” value in experiment [1] amounted to 6.2. The activation at 100 µM in experiment [2] is 17%.
Turning to `O=C(O)c1cnn(-c2nc(N3CCSCC3)c3ccc(Oc4ccccc4)cc3n2)c1` [Example 90, 1-(7-Phenoxy-4-thiomorpholinoquinazolin-2-yl)-1H-pyrazole-4-carboxylic acid], in experiment [1], the “Enzyme pIC50” value is 6.3. For the same compound, the activation at 100 µM in experiment [2] turned out to be 7.7%.
For `O=C(O)c1cnn(-c2nc(N3CCC(F)CC3)c3ccc(Oc4ccccc4)cc3n2)c1` [Example 91, 1-(4-(4-Fluoropiperidin-1-yl)-7-phenoxyquinazolin-2-yl)-1H-pyrazole-4-carboxylic acid] the same measures were 6.3 and 18%.
For `CCCCN(CCCC)c1nc(-n2cc(C(=O)O)cn2)nc2cc(Oc3ccccc3)ccc12` [Example 92, 1-(4-(Dibutylamino)-7-phenoxyquinazolin-2-yl)-1H-pyrazole-4-carboxylic acid] the same measures were 7.1 and 4.1%.
The matching figures for `CCN(C)c1nc(-n2cc(C(=O)O)cn2)nc2cc(Oc3ccccc3)ccc12` [Example 94, 1-(4-(Ethyl(methyl)amino)-7-phenoxyquinazolin-2-yl)-1H-pyrazole-4-carboxylic acid]: 7.2 and 83%.
As to `COCCN(C)c1nc(-n2cc(C(=O)O)cn2)nc2cc(Oc3ccccc3)ccc12` [Example 95, 1-(4-((2-Methoxyethyl)(methyl)amino)-7-phenoxyquinazolin-2-yl)-1H-pyrazole-4-carboxylic acid], the “Enzyme pIC50” value in experiment [1] was 6.8. Also, in experiment [2], the activation at 100 µM was 46%.
For `CCN(CC)c1nc(-n2cc(C(=O)O)cn2)nc2cc(Br)ccc12` [Example 96, 1-(7-Bromo-4-(diethylamino)quinazolin-2-yl)-1H-pyrazole-4-carboxylic acid] the same measures were 6.9 and 72%.
